Experimental data reported in US20170027896A1, “METHODS AND COMPOSITIONS FOR THE TREATMENT OF VASCULAR MALFORMATION” (IFOM - FONDAZIONE ISTITUTO FIRC DI ONCOLOGIA MOLECOLARE, priority 2014, published 2017).
“Also recorded” adds a separate entry of the source.

Assays:
[1] = test system: vascular malformations in the retina of CCM3-ECKO mice; assay: Retina vascular lesions and vein diameter in CCM3-ECKO mice; assay type: in vivo, mouse
Text: (§1) The CCM3-flox/flox mice were generated at TaconicArtemis (Koeln, Germany). Two P-lox sequences were inserted that flank exons 4 and 5 of the murine CCM3 gene, to produce a loss-of-function mutation after excision by Ore recombinase. These CCM3-flox/flox mice were bred with Cdh5(PAC)-CreERT2 mice (Wang et al, 2010) for tamoxifen-inducible endothelial-cell-specific expression of Ore-recombinase and CCM3 gene recombination. The CCM3-flox/flox-Cdh5(PAC)-CreERT2 mice were further bred with BAT-gal mice (Maretto et al, 2003) to monitor the activation of b-catenin transcription signaling, and with Rosa 26-Enhanced […] Fluorescent Protein (EYFP) (Rosa26EYFP) mice (Srinivas et al, 2001) to monitor the expression of Ore-recombinase through the expression of EYFP. Tamoxifen (Sigma) was dissolved in corn oil and 10% ethanol (at 10 mg/ml), and then diluted 1:5 in corn oil before single intragastric administration to dpn 1-2 pups (35 mg/kg body weight), as described in^14. The control (wild-type) mice included CCM3-flox/flox-Cdh5(PAC)-CreERT2-BAT-gal mice treated with the vehicle used to dissolve the tamoxifen (corn oil plus 2% ethanol), and CCM3^+/+-Cdh5(PAC)-CreERT2-BAT-gal mice treated with tamoxifen.
Brains and eyes from mice pups were fixed in 3% paraformaldehyde immediately after dissection, and this fixing was continued overnight at 4° C. […]

cyclooxygenase = conditions: reported; cited from earlier work
[2] = test system: vascular lesions in the brain of CCM3-ECKO mice; assay: Assessment of lesion burden in brains of CCM3-ECKO mice; assay type: in vivo, mouse
Text: as §1
Brains and eyes from mice pups were fixed in 3% paraformaldehyde immediately after dissection, and this fixing was continued overnight at 4° C. The retinas were dissected from the eyes just before staining as the whole mount. Fixed brains were embedded in 4% low-melting-point agarose and sectioned along the sagittal axis ([…]) using a vibratome (1000 Plus, The Vibratome Company, St. Louis, Mo., US).
For the classification and counting of lesions, entire brains from dpn 9 littermate pups were sectioned and immunostained for Pecam as described above and in the Methods. Sections were then examined under wide-field fluorescence microscopy (10× and 20×). Lesions were classified as described in^63 as mulberry (multiple cavernae, group of more than two contiguous cavernae), single caverna (single dilated vessel with maximal diameter accommodating more than 25 red blood cells), or telangiectases, tortuous small vessels with abnormally dilated lumen). The total numbers of lesions were calculated by summing all of the types of lesions.
As the sections were […], a correction was applied to the number of mulberry lesions, which can span two sections. Therefore, the number of mulberry lesions was divided by […]. The lesions were counted and classified independently by two observers who were blinded to the treatments.
The maximal diameter of the mulberry lesions and single cavernae was used for statistical comparison.

[3] = test system: co-immunoprecipitation complex of b-catenin and VE-cadherin; assay: Co-immunoprecipitation and Western blotting of b-catenin and VE-cadherin in CCM3-knockout endothelial line; assay type: cell-based, mouse; conditions: association reduced by 35% in vehicle-KO
Description: Drugs were added to confluent cells for 48 h before the indicated assays. The final concentrations used were: […] (all from Sigma-Aldrich). As all of these were dissolved in DMSO, control treatment (vehicle) was 0.1% DMSO final concentration, as for drug treatment. Standard procedures were used to extract and analyze the protein content by Western blotting and immunoprecipitation^46. Nuclear fractionation was as described previously^62.

[4] = test system: b-catenin/Tcf4-dependent transcription; assay: Top/Fop-Flash assay in CCM3-knockout endothelial line; assay type: cell-based, mouse; conditions: 48 h
Description: Drugs were added to confluent cells for 48 h before the indicated assays. The final concentrations used were: […] (all from Sigma-Aldrich). As all of these were dissolved in DMSO, control treatment (vehicle) was 0.1% DMSO final concentration, as for drug treatment. […] This was transfected into the endothelial cells […] using Lipofectamine 2000, according to the manufacturer instructions (Invitrogen). The pCMV plasmid for constitutive expression of b-gal was co-transfected ([…]), for normalization of luciferase expression over transfection efficiency. […] This was co-transfected with the b-gal plasmid, for normalization, as above. The Dual-Light Reporter Gene assay system (Applied Biosystems) for the combined detection of firefly luciferase and b-gal was used. The cell extraction and detection of chemiluminescence (Glomax 96 microplate luminometer; Promega) was carried out according to the manufacture instructions.

CSc1ccc(/C=C2/C(C)=C(CC(=O)O)c3cc(F)ccc32)cc1 [sulindac sulfide, (Z)-5-Fluoro-2-methyl-1-[4-(methylthio)benzylidene]indene-3-acetic acid]
vascular malformations in the retina ([1]; CCM3-ECKO mice, dpn 9): inhibited; also recorded: partially normalized
diameter of the most internal tract of the retinal veins (mean±SD) ([1]; CCM3-ECKO, 30 measurements in 14 retinas, vehicle-ECKO 89.5±7.1 mm): 35 ± 7.8 µm
anti-cyclooxygenase activity (cyclooxygenase): inhibits
diameters of cerebral vessels / mulberry budding ends (Pecam immunostaining of brain sections) ([2]; CCM3-ECKO pups at dpn9, treated from dpn2): greatly reduces
maximal diameter of single cavernae ([2]; CCM3-ECKO pups dpn 9, 30 mg/kg daily): did not significantly reduce
mean maximal diameter of mulberry lesions (±SD) ([2]; CCM3-ECKO pups dpn 9, 30 mg/kg daily, vehicle 386±56 mm): 244 ± 38 µm
mean number (±SD) of vascular lesions per brain ([2]; CCM3-ECKO pups dpn 9, 30 mg/kg intragastrically daily, controls 166.8±22 (sulfide study), 153.5±28 (sulfone study)): 72.6±9
association between b-catenin and VE-cadherin (b-catenin/VE-cadherin ratio) [3]: restored to the level observed in the wild-type cells
b-catenin transcriptional activity in Top/Fop Flash reporter assay [4]: inhibited; also recorded: reduced
